According to patent US5783597A, “2,5-disubstituted thiophenes: inhibitors of 5-lipoxygenase and inducible cyclooxygenase (COX-2) enzymes, composition and use” (Ortho Pharmaceutical Corporation, priority 1997, dated 1998):

Experiments:
5-lipoxygenase (5-LO) = molecular target: T1, 5-lipoxygenase (5-LO) (Rattus norvegicus, UniProt P12527); assay: RBL-1 cell 5-lipoxygenase and cyclooxygenase - Whole cells (Procedure II); type: cell-based; settings: intact RBL-1 cells, 5-HETE; read-out: Procedure II (5-LO) Wh Cell IC50
T1 construct: endogenous in cells; host or cells: intact RBL-1 (rat basophilic leukemia) cells, stimulated with calcium ionophore A23187
T1 sequence (P12527 1-673): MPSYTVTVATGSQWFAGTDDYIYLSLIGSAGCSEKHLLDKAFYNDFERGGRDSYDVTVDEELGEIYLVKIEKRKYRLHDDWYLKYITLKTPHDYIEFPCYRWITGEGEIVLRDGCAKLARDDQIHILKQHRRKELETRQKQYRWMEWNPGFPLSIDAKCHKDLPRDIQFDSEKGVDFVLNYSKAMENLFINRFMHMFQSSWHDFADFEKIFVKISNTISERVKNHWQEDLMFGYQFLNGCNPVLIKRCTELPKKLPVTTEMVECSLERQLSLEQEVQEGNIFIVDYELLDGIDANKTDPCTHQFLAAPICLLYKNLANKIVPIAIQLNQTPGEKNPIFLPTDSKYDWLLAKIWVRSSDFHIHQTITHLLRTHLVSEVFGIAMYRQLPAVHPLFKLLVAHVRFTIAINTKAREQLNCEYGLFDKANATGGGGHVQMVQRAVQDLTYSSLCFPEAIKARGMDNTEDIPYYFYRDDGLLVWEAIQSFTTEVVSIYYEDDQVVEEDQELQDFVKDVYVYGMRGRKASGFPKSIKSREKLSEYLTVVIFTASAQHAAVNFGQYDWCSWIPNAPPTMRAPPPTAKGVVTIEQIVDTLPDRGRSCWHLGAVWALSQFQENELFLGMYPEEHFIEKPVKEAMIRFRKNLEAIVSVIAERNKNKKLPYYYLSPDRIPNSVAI
Experimental: RBL-1 Cell 5-Lipoxygenase and cyclooxygenase - Whole cells
The ability to inhibit 5-LO and CO in intact RBL-1 cells was also evaluated. […] Cells were collected by centrifugation, washed once in HBSS, and resuspended at a concentration of 1×10^5 cells/mL. Cells were incubated in the presence of vehicle or drug then centrifuged at 800×g for 10 minutes at 4° C. The supernatant was removed by aspiration and the cells were resuspended in 0.5 mL of HBSS. […] The conversion of M to 5-LO products was initiated by the addition of 10 μL (50 uCi) of 1-^14 C-AA. Products were isolated by acidification and extraction, followed by thin layer chromatography analysis as described above. Radioactive areas corresponding to authentic 5-LO (5-HETE) and CO (PGD2) products were quantitated by the Bioscan 2000 Imaging System.

[1] = molecular target: T2, Human Prostaglandin H2 Synthase Typ II (Cox-2) (Homo sapiens, UniProt P35354); assay: Human Prostaglandin H2 Synthase Typ II (Cox-2) Whole Cell Assay, ECV-304 cells (Procedure III); type: cell-based; settings: ECV-304 whole cells, PGE2 produced; read-out: Procedure III (COX-2) Wh Cell IC50
T2 construct: endogenous in cells; host or cells: ECV-304 cells treated with PMA and ionomycin for 16 hours
T2 sequence (P35354 18-604): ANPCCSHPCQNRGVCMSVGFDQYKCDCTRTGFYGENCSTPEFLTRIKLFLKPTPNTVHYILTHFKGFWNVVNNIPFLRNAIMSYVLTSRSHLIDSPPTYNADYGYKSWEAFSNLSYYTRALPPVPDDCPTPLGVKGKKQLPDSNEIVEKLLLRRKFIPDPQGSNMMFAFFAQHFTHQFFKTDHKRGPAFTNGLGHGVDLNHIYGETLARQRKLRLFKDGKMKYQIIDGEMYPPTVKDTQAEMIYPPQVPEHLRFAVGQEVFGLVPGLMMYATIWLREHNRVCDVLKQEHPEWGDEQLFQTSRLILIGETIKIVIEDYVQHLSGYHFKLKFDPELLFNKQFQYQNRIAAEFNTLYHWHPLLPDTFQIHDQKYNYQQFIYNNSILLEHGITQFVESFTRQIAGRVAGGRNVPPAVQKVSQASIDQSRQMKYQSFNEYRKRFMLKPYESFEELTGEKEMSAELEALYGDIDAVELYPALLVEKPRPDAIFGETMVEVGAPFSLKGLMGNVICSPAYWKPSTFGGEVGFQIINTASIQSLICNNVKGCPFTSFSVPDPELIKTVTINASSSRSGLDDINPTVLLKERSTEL
Experimental: Human Prostaglandin H2 Synthase Typ II (Cox-2) Whole Cell Assay (Multiple Concentrations)
ECV-304 (human, endothelial, umbilical cord) cells are maintained in culture in a suitable medium, and are trypsinized and plated at a density of 1×10^6 cells per well of a 6 well plate prior to assay. Approximately 28 hours later, 50 μg/ml PMA and […] ionomycin (both final concentrations) are added to each well and incubated for an additional 16 hours. Vehicle or test compounds are incubated with the cells for five minutes prior to initiation of Cox-2 enzyme activity by the addition of 30 μM arachidonic acid. Ten minutes later, an aliquot of the supernatant is withdrawn and the amount of PGE2 present quantitated by radioimmunoassay. Activity, reported as percent inhibition of PGE2 produced, is calculated as follows: […]

CS(=O)(=O)Nc1ccc(Oc2ccc(F)cc2)s1 [Example 1]
IC50 (5-lipoxygenase (5-LO)): 460 nM | IC50 [1]: 1810 nM
